Data published in patent publication US20030087906A1, “NITROGEN SUBSTITUTED BIARYL PURINE DERIVATIVES AS POTENT ANTIPROLIFERATIVE AGENTS” (priority 2001, published 2003).
Several values for one entry are separate records, joined by “and”; a condition that tells them apart may be missing. Identical values can stand only once. Entries after “also recorded” stand apart in the source; their conditions may differ. Like-named read-outs stand apart in the source and are kept apart here.

How the values were obtained:
CyclinB/cdk1 = molecular target: T1, CyclinB/cdk1 (Homo sapiens, UniProt P06493); assay: CyclinB/cdk1 protein kinase assay (histone H1 phosphorylation); type: biochemical; details: complex immunopurified from HeLa cells; 15 μM ATP; replicate experiments
T1 construct: Monoclonal antibody against cyclinB (GNS1) is added to the supernatant; endogenous in cells
Description: HeLa cells are blocked at the G1/S border by culturing in the presence of 2 mM thymidine for 20 h. The cells are then rinsed 3×in phosphate buffered saline and resuspended in regular medium. After 4 h of culture, the mitotic blocker, nocodazole is added to a final concentration of 75 ng/ml. […] The lysate is then clarified by centrifugation at 10,000×g for 10 min. The supernatant is collected and diluted 1:5 with Lysis Buffer. Monoclonal antibody against cyclinB (GNS1) is added to the supernatant to a final concentration of 5 μg/ml and shaken at 4° C. for 2 h. The immune complexes are then collected by the addition of 200 μl of protein agarose beads for 1 h. The beads are washed 4×in lysis buffer and 1×in kinase assay buffer.
Duplicate assays were performed at each concentration.

CyclinA/cdk2 = CyclinA/cdk2 (Homo sapiens, UniProt P24941); assay: CyclinA/cdk2 protein kinase assay (histone H1 phosphorylation); details: IC50 CyclinA/cdk2, complex immunopurified from HeLa cells; 15 μM ATP; replicate experiments
CyclinE/cdk2 = CyclinE/cdk2 (Homo sapiens, UniProt P24941); assay: CyclinE/cdk2 protein kinase assay (histone H1 phosphorylation); details: 15 μM ATP, replicate experiments
HeLa S-3 cells = assay: Inhibition of cell growth of HeLa cells (SRB); type: cell-based, human; details: 2 days of treatment, replicate experiments
Description: Growth inhibition (GI50) values were measured with HeLa S-3 cells selected for growth on plastic. […] One day later, a control plate was fixed by addition of TCA to 5%. After five rinses with tap water the plate was air dried and stored at 4° C. Test compounds were added to the remaining plates at 10-fold dilutions between 0.01 and 100 μM. Two days later all plates were fixed as described above. Cells were then stained by the addition of 100 μl per well of 0.4% sulforhodamine B (SRB) in 1% acetic acid for 30 min at 4° C. Wells were then quickly rinsed 5×with acetic acid (1%) and allowed to air dry. The SRB was then solubilized by the addition of 100 μl per well of unbuffered 10 mM Tris base. Dye was quantified by measuring absorbance at 490 nm on a Molecular Devices kinetic microplate reader. Growth at each inhibitor concentration relative to the untreated control was calculated according to the following equation: percent growth=100×(T−To)/(C−To), where T was the average optical density (OD) of the test wells after 2 days of treatment, To was the average OD of the wells in the control plate on day 0 and C was the average OD of untreated wells. Plots of percent growth versus inhibitor concentration were used to determine the GI50.

[1] = test system: Tumor Cells in Hollow Fibers; assay: NCI Hollow Fiber Assay (in vivo evaluation); details: for IP Score: IP fibers; for SC score: SC fibers
[2] = IC50 CyclinE/cdk2, complex immunopurified from HeLa cells

T1 sequence (P06493 whole entry): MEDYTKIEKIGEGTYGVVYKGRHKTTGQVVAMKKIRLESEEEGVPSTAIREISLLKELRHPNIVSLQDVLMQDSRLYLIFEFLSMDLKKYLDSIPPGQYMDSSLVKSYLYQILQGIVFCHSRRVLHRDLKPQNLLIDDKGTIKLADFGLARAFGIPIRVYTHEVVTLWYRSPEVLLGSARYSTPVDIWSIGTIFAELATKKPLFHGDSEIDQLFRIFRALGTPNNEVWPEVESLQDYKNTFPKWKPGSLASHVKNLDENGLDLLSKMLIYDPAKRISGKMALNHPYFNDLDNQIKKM
T1 sequence (P14635 whole entry partner): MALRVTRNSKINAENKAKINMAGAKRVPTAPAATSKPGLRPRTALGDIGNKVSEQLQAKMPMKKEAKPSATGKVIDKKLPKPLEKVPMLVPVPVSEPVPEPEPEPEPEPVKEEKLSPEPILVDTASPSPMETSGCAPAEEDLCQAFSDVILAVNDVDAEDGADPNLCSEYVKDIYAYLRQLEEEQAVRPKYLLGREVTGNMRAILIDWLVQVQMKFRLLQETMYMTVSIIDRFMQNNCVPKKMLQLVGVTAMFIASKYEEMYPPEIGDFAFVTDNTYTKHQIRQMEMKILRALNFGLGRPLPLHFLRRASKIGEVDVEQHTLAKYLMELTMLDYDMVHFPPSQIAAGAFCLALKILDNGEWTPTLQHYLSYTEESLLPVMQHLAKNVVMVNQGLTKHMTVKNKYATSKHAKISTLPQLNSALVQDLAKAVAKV

Compound | IC50 (CyclinB/cdk1) | IC50 (CyclinA/cdk2) | IC50 (CyclinE/cdk2; [2]) | GI50 (HeLa S-3 cells; Homo sapiens, HeLa S3, 48 h) [nM] | melting point | also measured
CC(C)n1cnc2c(NCc3ccc(-c4ccccc4)cc3)nc(N[C@@H]3CCCC[C@H]3N)nc21 (racemic) [Compound 58] | 12000 nM | 11000 nM and 4000 nM | 2000 nM and 4000 nM | – | – | –
CC(C)n1cnc2c(NCc3ccc(-c4ccccc4)cc3)nc(N[C@@H]3CCCC[C@@H]3N)nc21 (racemic) [Compound 74] | 6000 nM | 5000 nM and 2000 nM and 1000 nM | 2000 nM and 3000 nM | – | – | –
CC[C@H](CO)Nc1nc(NCc2ccc(-c3cccc(NC(C)=O)c3)cc2)c2ncn(C(C)C)c2n1 [Compound 5] | 7000 nM | – | – | 5000 | – | –
Cc1ccc(-c2ccc(CNc3nc(N[C@H]4CC[C@H](N)CC4)nc4c3ncn4C(C)C)cc2)cc1 [Compound 13] | 4000 nM | 4000 nM and 1000 nM and 800 nM | 2000 nM and 300 nM and 900 nM | – | – | –
CC(C)n1cnc2c(NCc3ccc(-c4ccc(F)c(Cl)c4)cc3)nc(N[C@H]3CC[C@H](N)CC3)nc21 [Compound 14] | 7000 nM | – | – | – | – | GI50 (HeLa S-3 cells): 30 nM
CC(C)n1cnc2c(NCc3ccc(-c4ccccc4)cc3)nc(NC3(CO)CCCC3)nc21 [Compound 53] | > 10000 nM | > 10000 nM | 15000 nM and 4000 nM | – | – | –
CC(=O)N[C@H]1CCCC[C@@H]1Nc1nc(NCc2ccc(-c3ccccc3)cc2)c2ncn(C(C)C)c2n1 [Compound 60] | > 10000 nM | – | 12000 nM and > 10000 nM | 7000 | – | –
CC(C)n1cnc2c(NCc3ccc(-c4ccccc4)cc3)nc(N[C@H]3CC[C@H](N)CC3)nc21 [Compound 75] | 6000 nM | 3000 nM | 3000 nM | – | – | –
CC(C)n1cnc2c(NCc3ccc(-c4ccccc4)cc3)nc(N[C@H]3CCCC[C@H]3NC(=O)Nc3ccccc3)nc21 [Compound 80] | > 10000 nM | > 10000 nM | > 10000 nM and 4000 nM and 2000 nM | – | – | –
CC(C)n1cnc2c(NCc3ccc(-c4ccccc4)nc3)nc(N[C@H]3CC[C@H](N)CC3)nc21 [Compound 86] | 2000 nM | 900 nM and 700 nM and 400 nM and 600 nM | – | – | – | Cell Types Killed [1]: OVCAR 3,; also recorded: OVCAR 5, H522; IP Score [1]: 38; SC score [1]: 0
CC(C)n1cnc2c(NCc3ccc(-c4ccccn4)nc3)nc(N[C@H]3CC[C@H](N)CC3)nc21 [Compound 93] | 900 nM | 200 nM and 300 nM | 90 nM and 100 nM | – | – | GI50 (HeLa S-3 cells): 300 nM; Cell Types Killed [1]: OVCAR-3; IP Score [1]: 22; SC score [1]: 8
CC(=O)N[C@H]1CC[C@H](Nc2nc(NCc3ccc(-c4ccccn4)nc3)c3ncn(C(C)C)c3n2)CC1 [Compound 94] | 400 nM | 600 nM and 200 nM | 300 nM | 100 | – | Cell Types Killed [1]: COLO205,; also recorded: OVCAR-3, H522; IP Score [1]: 22; SC score [1]: 2
CC(C)n1cnc2c(NCc3ccc(-c4cccc(F)c4)cc3)nc(N[C@H]3CC[C@H](N)CC3)nc21 [Compound 95] | 4000 nM | – | – | – | – | –
CC(=O)N[C@H]1CC[C@H](Nc2nc(NCc3ccc(-c4cccc(F)c4)cc3)c3ncn(C(C)C)c3n2)CC1 [Compound 96] | 6000 nM | 8000 nM | 4000 nM | – | – | –
CC(C)n1cnc2c(NCc3ccc(-c4ccc(Cl)cc4)cc3)nc(N[C@H]3CC[C@H](N)CC3)nc21 [Compound 98] | > 10000 nM | – | – | – | – | –
CC(=O)N[C@H]1CC[C@H](Nc2nc(NCc3ccc(-c4ccc(Cl)cc4)cc3)c3ncn(C(C)C)c3n2)CC1 [Compound 99] | > 10000 nM | > 10000 nM | 9000 nM | 5000 | – | –
CC(=O)N[C@H]1CC[C@H](Nc2nc(NCc3ccc(-c4ccc(F)c(Cl)c4)cc3)c3ncn(C(C)C)c3n2)CC1 [Compound 100] | > 10000 nM | > 10000 nM | 4000 nM | 600 | – | –
CC(C)n1cnc2c(NCc3ccc(-c4ccc(F)cc4)cc3)nc(N[C@H]3CC[C@H](N)CC3)nc21 [Compound 101] | 4000 nM | – | – | – | – | –
CC(C)n1cnc2c(NCc3ccc(-c4cccnc4)cc3)nc(N[C@H]3CC[C@H](N)CC3)nc21 [Compound 103] | 1000 nM | 600 nM and 700 nM | 200 nM | – | – | Cell Types Killed [1]: OVCAR 3,; also recorded: OVCAR 5, H522,; also recorded: MDA-MB-435,; also recorded: SF295; IP Score [1]: 38; SC score [1]: 6
CC(=O)N[C@H]1CC[C@H](Nc2nc(NCc3ccc(-c4cccnc4)cc3)c3ncn(C(C)C)c3n2)CC1 [Compound 104] | 2000 nM | 7000 nM and 8000 nM | 1000 nM | 200 | – | –

Compound | IC50 (CyclinB/cdk1) | IC50 (CyclinA/cdk2) | IC50 (CyclinE/cdk2; [2]) | GI50 (HeLa S-3 cells; Homo sapiens, HeLa S3, 48 h) [nM] | melting point | also measured
CC(C)n1cnc2c(NCc3ccc(-c4ccc(C(=O)O)cc4)cc3)nc(N[C@H]3CC[C@H](N)CC3)nc21 [Compound 114] | – | 3000 nM | 700 nM | > 10000 | 246 to 249 °C (dec.) | –
COC(=O)c1ccc(-c2ccc(CNc3nc(N[C@H]4CC[C@H](N)CC4)nc4c3ncn4C(C)C)cc2)cc1 [Compound 115] | – | 3000 nM | 400 nM | 3000 | 194 to 197 °C | –
COC(=O)c1ccc(-c2ccc(CNc3nc(N[C@H]4CC[C@H](NC(C)=O)CC4)nc4c3ncn4C(C)C)cc2)cc1 [Compound 117] | – | > 10000 nM | 3000 nM | – | 247 to 250 °C | –
CC(C)n1cnc2c(NCc3ccc(-c4cccc(C(=O)O)c4)cc3)nc(N[C@H]3CC[C@H](N)CC3)nc21 [Compound 118] | – | 6000 nM | 1000 nM | – | 205 to 208 °C | –
CCn1cnc2c(Nc3cccc(Cl)c3)nc(N[C@H]3CCCC[C@H]3N)nc21 [Compound 125, reference compound] | 600 nM | 1000 nM | 100 nM | 3000 | – | –
CC(C)n1cnc2c(NCc3cccnc3)nc(N[C@@H]3CCCC[C@@H]3N)nc21 [Compound 126, reference compound] | 2000 nM and 200 nM | 600 nM and 800 nM | 60 nM | – | – | IC50 (CyclinE/cdk2; read-out: IC50 CyclinE/cdk2, complex immunopurified from HeLa cells): 60 nM
CC(=O)N[C@H]1CC[C@H](Nc2nc(NCc3cccc(-c4ccccc4)c3)c3ncn(C(C)C)c3n2)CC1 [Compound 135] | – | – | – | – | 183 to 185 °C | –
CCn1cnc2c(NCc3ccc(-c4ccccc4)cc3)nc(N[C@H]3CC[C@H](N)CC3)nc21 [Compound 137] | – | – | – | – | 175 to 182 °C | –
CCCn1cnc2c(NCc3ccc(-c4ccccc4)cc3)nc(N[C@H]3CC[C@H](N)CC3)nc21 [Compound 142] | – | – | – | – | 133 to 138 °C | –
N[C@H]1CC[C@H](Nc2nc(NCc3ccc(-c4ccccc4)cc3)c3ncn(C4CCCC4)c3n2)CC1 [Compound 144] | – | – | – | – | 144 to 146 °C | –
C=CCn1cnc2c(NCc3ccc(-c4ccccc4)cc3)nc(N[C@H]3CC[C@H](N)CC3)nc21 [Compound 146] | – | – | – | – | 111 to 114 °C | –
Cc1cc(C)cc(-c2ccc(CNc3nc(N[C@H]4CC[C@H](N)CC4)nc4c3ncn4C(C)C)cc2)c1 [Compound 149] | – | – | – | – | 86 to 90 °C | –
CC(=O)N[C@H]1CC[C@H](Nc2nc(NCc3ccc(-c4cc(C)cc(C)c4)cc3)c3ncn(C(C)C)c3n2)CC1 [Compound 150] | – | – | – | 300 | 207 to 210 °C | –
COc1ccc(OC)c(-c2ccc(CNc3nc(N[C@H]4CC[C@H](NC(C)=O)CC4)nc4c3ncn4C(C)C)cc2)c1 [Compound 154] | – | – | – | 600 | 185 to 192 °C | GI50 (HeLa S-3 cells): 900 nM
CCCN[C@H]1CC[C@H](Nc2nc(NCc3ccc(-c4ccc(C)s4)cc3)c3ncn(C(C)C)c3n2)CC1 [Compound 159] | – | – | – | – | 150 to 155 °C | –
COc1cccc(-c2ccc(CNc3nc(N[C@H]4CC[C@H](NC(C)=O)CC4)nc4c3ncn4C(C)C)cn2)c1 [Compound 194] | – | – | – | 60 | 161 to 163 °C | GI50 (HeLa S-3 cells): 40 nM
CC(=O)N[C@H]1CC[C@H](Nc2nc(NCc3ccc(-c4cccs4)nc3)c3ncn(C(C)C)c3n2)CC1 [Compound 200] | – | – | – | 300 | 206 to 208 °C | GI50 (HeLa S-3 cells): 200 nM
CC(=O)NCCCNc1nc(NCc2ccc(-c3ccccc3)cc2)c2ncn(C(C)C)c2n1 [Compound 212] | – | – | – | 5000 | 106 to 107 °C | –
CC(=O)N[C@H]1CC[C@H](Nc2nc(NCc3ccc(-c4cccc(CN)c4)cc3)c3ncn(C(C)C)c3n2)CC1 [Compound 223] | – | – | – | – | 200 to 206 °C | –
